# Target: T1, DPP-IV (Homo sapiens, UniProt P27487)
# T1 construct: an extract of the human colon carcinoma cell line Caco-2 is used as the DPP IV source; endogenous in cells; host or cells: Caco-2 (human colon carcinoma), differentiated to induce DPP-IV expression; Nonidet-P40 solubilised extract
# Assay: DPP-IV assay with Caco-2 cell extract as DPP IV source, AFC substrate, fluorescence
# Assay type: biochemical
# Details: extract of human colon carcinoma cell line Caco-2; substrate 100 μM; 60 minutes at ambient temperature; read-out: DPP IV inhibition IC50
# Protocol: The cell extract was obtained from cells solubilised in a buffer (10 mM Tris HCl, 0.15 M NaCl, 0.04 t.i.u. aprotinin, 0.5% Nonidet-P40, pH 8.0) by centrifugation at 35,000 g for 30 minutes at 4° C. (to remove cell debris).
# The DPP-IV assay was carried out as follows:
# 50 μl of substrate solution (AFC; AFC is amido-4-trifluoromethylcoumarin), final concentration 100 μM, were placed in black microtitre plates. 20 μl of assay buffer (final concentrations 50 mM Tris HCl pH 7.8, 50 mM NaCl, 1% DMSO) was pipetted in. The reaction was started by the addition of 30 μl of solubilised Caco-2 protein (final concentration 0.14 μg of protein per well). The test substances under investigation were typically added prediluted to 20 μl, while the volume of assay buffer was then reduced accordingly. The reaction was carried out at ambient temperature, the incubation period was 60 minutes. […] Dummy values (corresponding to 0% activity) were obtained in mixtures with no Caco-2 protein (volume replaced by assay buffer), control values (corresponding to 100% activity) were obtained in mixtures without any added substance.
# T1 sequence (P27487 whole entry): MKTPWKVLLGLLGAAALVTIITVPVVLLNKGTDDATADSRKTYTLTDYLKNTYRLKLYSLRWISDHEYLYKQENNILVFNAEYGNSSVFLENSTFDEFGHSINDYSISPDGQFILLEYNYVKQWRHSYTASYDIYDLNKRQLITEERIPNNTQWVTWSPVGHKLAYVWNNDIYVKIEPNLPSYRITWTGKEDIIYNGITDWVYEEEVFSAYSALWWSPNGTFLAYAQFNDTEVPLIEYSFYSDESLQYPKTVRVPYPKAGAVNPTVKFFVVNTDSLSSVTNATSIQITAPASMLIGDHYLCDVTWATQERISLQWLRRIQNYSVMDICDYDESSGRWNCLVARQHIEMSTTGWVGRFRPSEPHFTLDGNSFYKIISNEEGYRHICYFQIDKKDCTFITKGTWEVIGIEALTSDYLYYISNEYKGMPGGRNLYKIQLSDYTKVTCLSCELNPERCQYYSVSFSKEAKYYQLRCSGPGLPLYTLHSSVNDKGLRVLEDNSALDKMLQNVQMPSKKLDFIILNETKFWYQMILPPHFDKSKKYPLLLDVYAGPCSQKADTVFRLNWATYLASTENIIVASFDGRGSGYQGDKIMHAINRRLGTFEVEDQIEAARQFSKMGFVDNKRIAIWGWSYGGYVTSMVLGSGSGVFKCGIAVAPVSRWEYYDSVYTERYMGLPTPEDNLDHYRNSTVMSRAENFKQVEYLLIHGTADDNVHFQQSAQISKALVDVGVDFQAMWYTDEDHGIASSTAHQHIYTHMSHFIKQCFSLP
row,Compound,IC50 [nM]
1,"NC1CCCN(c2nnc(C(=O)NCc3cccc4ccccc34)n2Cc2ccccc2)C1 (centres unmarked) [3(1), 3-(3-amino-piperidin-1-yl)-4-benzyl-5-(naphth-1-ylmethylaminocarbonyl)-4H-[1,2,4]triazole]",101
2,"CC(C)=CCn1c(C(=O)NCc2cccc3ccccc23)nnc1N1CCNCC1 [Example 2, 3-(piperazin-1-yl)-4-(3-methyl-but-2-enyl)-5-(naphth-1-ylmethylaminocarbonyl)-4H-[1,2,4]triazole]",367
3,"CC#CCn1c(C(=O)NCc2nc3ccccc3c3ccccc23)cnc1N1CCCC(N)C1 (centres unmarked) [1(2), 1-(but-2-ynyl)-2-(3-amino-piperidin-1-yl)-5-(phenanthridin-6-ylmethylaminocarbonyl)-1H-imidazole]",41
4,"CC#CCn1c(C(=O)NCc2ccc3ncccc3c2)nnc1N1CCCC(N)C1 (centres unmarked) [4(2), 3-(3-amino-piperidin-1-yl)-4-(but-2-ynyl)-5-(quinolin-6-ylmethylaminocarbonyl)-4H-[1,2,4]triazole]",36
5,"CC(C)=CCn1c(C(=O)NCc2cccc3ccccc23)nnc1N1CCCNCC1 [2(2), 3-([1,4]diazepan-1-yl)-4-(3-methyl-but-2-enyl)-5-(naphth-1-ylmethylaminocarbonyl)-4H-[1,2,4]triazole]",386
6,"CC(C)=CCn1c(C(=O)NCc2cccc3ccccc23)nnc1N1CCCC(N)C1 (centres unmarked) [Example 3, 3-(3-amino-piperidin-1-yl)-4-(3-methyl-but-2-enyl)-5-(naphth-1-ylmethylaminocarbonyl)-4H-[1,2,4]triazole]",101
7,"NC1CCCN(c2nnc(C(=O)NCc3cccc4ccccc34)n2Cc2ccccc2Cl)C1 (centres unmarked) [Example 4, 3-(3-amino-piperidin-1-yl)-4-(2-chloro-benzyl)-5-(naphth-1-ylmethylaminocarbonyl)-4H-[1,2,4]triazole]",382

# Test system: rats
# Assay: Tolerability: behavior of rats after oral administration
# Assay type: in vivo
# Details: oral administration of 10 mg/kg
row,Compound,changes in the behavior of rats (tolerability)
1,"CC#CCn1c(C(=O)NCc2nc(C)cc3ccccc23)nnc1N1CCCC(N)C1 (centres unmarked) [Example 4(1), 3-(3-amino-piperidin-1-yl)-4-(but-2-ynyl)-5-(3-methyl-isoquinolin-1-ylmethylaminocarbonyl)-4H-[1,2,4]triazole]",no changes in the behavior of rats could be detected

# Reference: patent publication US7470716B2, “Imidazoles and triazoles, their preparation, and their use as pharmaceutical compositions” (Boehringer Ingelheim International GmbH, priority 2004, dated 2008)
